Source: PMC12299847, “Macroalgae-Inspired Brominated Chalcones as Cosmetic Ingredients with the Potential to Target Skin Inflammaging” (Marine Drugs, 2025)

System: iNOS protein levels in RAW264.7 macrophages
Assay: Western blot analysis of iNOS expression in LPS-stimulated macrophages
Type: cell-based, murine
Details: for iNOS expression level: normalized against LPS condition
Method: To investigate the underlying mechanism of action of the most promising brominated chalcones (1 and 2), their effects on iNOS protein levels were assessed in LPS-stimulated macrophages at different time points (4, 6, and 24 h). The non-treated (NT) condition, consisting of macrophages stimulated with LPS but receiving no chalcone treatment, was used as the reference for maximal iNOS induction under inflammatory conditions and served as a positive control. The selected concentrations (7.5 μM and 15 μM) were selected based on chalcones 1 and 2 cytocompatibility (Figure 3) and efficacy in reducing NO production (Figure 4). Since NO production is a direct consequence of iNOS enzymatic activity, where the enzyme catalyzes the conversion of L-arginine to NO following inflammatory stimulation such as LPS, this provides a functional readout of iNOS expression and activity.
Here, we focused on validating iNOS expression at the protein level by western blot (Figure 6). While gene-level expression was not assessed, it is well established that LPS stimulation induces both iNOS transcription and translation in RAW 264.7 macrophages. Moreover, changes observed at the protein level are often closely associated with upstream transcriptional or translational modulation. Therefore, quantifying iNOS protein levels provides a biologically relevant measure of the chalcones’ inhibitory effects on this key inflammatory mediator.
The expression of the iNOS enzyme was analyzed by western blot. RAW264.7 macrophages were seeded at a density of 1 × 10^6 cells/well in a 6-well plate and incubated for 24 h at 37 °C in a humidified atmosphere containing 5% CO2. After incubation, cells were treated with 7.5 µM or 15 µM of the most promising chalcones (1 and 2) for 30 min, followed by the addition of LPS to have a final concentration of 100 ng/mL. Cells were then incubated for 4, 6, or 24 h. At each time point, cells were washed with PBS and lysed in RIPA buffer. The lysates were collected in Eppendorf tubes and kept on ice, with intermittent vortexing to ensure thorough lysis. Samples were centrifuged at 18,000× g for 16 min at 4 °C, and the supernatant was collected. Total protein concentration was determined using the Pierce™ BCA Protein Assay Kit (Thermo Scientific, 23225, Waltham, MA, USA), following the manufacturer’s instructions. Equal amounts of protein (25 µg) were loaded onto Bolt™ 8% Bis-Tris Mini Protein Gels (Invitrogen™, NW00087BOX, Waltham, MA, USA) and separated via electrophoresis. Proteins were then transferred onto nitrocellulose membranes (Invitrogen™, IB24002) using the iBlot® 2 dry transfer system (Invitrogen™, Waltham, MA, USA). After transfer, membranes were sectioned to separate the iNOS bands from those of the housekeeping protein GAPDH. Membranes were blocked for 1 h at room temperature in TBS-T containing 5% BSA and subsequently incubated overnight at 4 °C with primary antibodies against iNOS (Cell Signaling Technology, 16713120S, Danvers, MA, USA) or GAPDH (Abcam, ab181602, Cambridge, UK), diluted in TBS-T with 1% BSA. On the following day, membranes were washed three times with TBS-T and incubated for 1 h at room temperature with an HRP-conjugated secondary antibody (Cell Signaling Technology, 7074S) diluted in TBS-T with 1% BSA. After three additional washes, signal detection was performed using Clarity™ Western ECL Substrate (Bio-Rad, 1705061, Hercules, CA, USA), and chemiluminescent signals were acquired using the Odyssey FC imaging system (LI-COR, Lincoln, NE, USA). Densitometric analysis of iNOS bands was performed using Image Studio™ Software (version 5.2, LI-COR, Lincoln, NE, USA), with values normalized to the corresponding GAPDH bands.
Figure 6 iNOS expression level after treatment of 4, 6, and 24 h with chalcones 1 and 2 in macrophage cell line. Results are expressed as volume arbitrary unit (A). […]

## COc1cc(Br)c(/C=C/C(=O)c2cc(OC)c(OC)cc2Br)cc1OC [Chalcone 1]
7.5 µM, 4 h
  iNOS expression level: 84.7%
7.5 µM, 24 h
  iNOS expression level: 14.3%
15 µM, 4 h
  iNOS expression level: 28.3%
15 µM, 6 h
  iNOS expression level: 13.5%
15 µM, 24 h
  iNOS expression level: 16.7%
Regardless of concentration (7.5 µM at 24 h, 15 µM at 6 h)
  maximum reduction of iNOS expression: approximately 85%
